Source: patent US11052153B2, “Highly branched alpha-D-glucans” (Purdue Research Foundation, priority 2012, dated 2021)

How the values were obtained:
[1] = Curcumin solubility in pH 6.5 10 mM NaAc buffer as affected by carriers; assay type: physicochemical; conditions: carrier 10 mg/mL; for Curcumin Solubility: excess curcumin homogenized
Protocol: Thereafter, 1.0 mL aliquot was drawn from each mixture and subjected to centrifugation. The supernatant was added to ethanol to extract curcumin.

[2] = tested on: Salmonella typhimurium; experiment: Minimum inhibitory concentration of thymol in BHI broth (turbidity); assay type: cell-based; conditions: Salmonella enterica, 37° C., 24 hours, 1.0% (v/v) inoculum
Protocol: The mixture was subjected to high speed homogenization. After homogenization, the dispersion was centrifuged to collect aqueous liquid. The concentration of thymol in this phytoglycogen-thymol liquid stock was determined to be about 400 μg/mL. As reference, a thymol-alone stock of 400 μg/mL in sodium acetate buffer (50 mM, pH 5.5) was prepared by adding thymol in the buffer and vortex. The phytoglycogen-thymol stock and thymol-alone stock were added to Brain Heart Infusion (BHI) broth to make the thymol concentrations of 12.5, 25, 50, 80, 100, and 125 μg/mL. To the glass tubes containing these broth liquids, Salmonella typhimurium culture (about 10^9 CFU/mL) was inoculated at a 1.0% (v/v) level, and all liquids were incubated at 37° C. for 24 hours. Thereafter, the tubes were photographed for comparing the turbidity.

[3] = physchem; assay type: physicochemical; conditions: 22 °C, pH 6.6, aqueous buffer, kinetic from dmso stock

Carrier/curcumin ratio [1] | Curcumin Solubility [1] | MIC [2] | solubility at 2 h [3] | Compound
91/1 | 0.11 mg/mL | – | – | hydroxypropyl β-cyclodextrin [HPβCD]
222/1 | 0.0451 mg/mL | – | – | OC[C@H]1O[C@@H]2O[C@H]3[C@H](O)[C@@H](O)[C@@H](O[C@H]4[C@H](O)[C@@H](O)[C@@H](O[C@H]5[C@H](O)[C@@H](O)[C@@H](O[C@H]6[C@H](O)[C@@H](O)[C@@H](O[C@H]7[C@H](O)[C@@H](O)[C@@H](O[C@H]8[C@H](O)[C@@H](O)[C@@H](O[C@H]1[C@H](O)[C@H]2O)O[C@@H]8CO)O[C@@H]7CO)O[C@@H]6CO)O[C@@H]5CO)O[C@@H]4CO)O[C@@H]3CO [βCD, β-cyclodextrin]
– | – | > 125 mg/L | – | Cc1ccc(C(C)C)c(O)c1 [thymol-alone, thymol]
– | – | – | < 0.0003 mg/mL | COc1cc(/C=C/C(=O)CC(=O)/C=C/c2ccc(O)c(OC)c2)ccc1O [curcumin]
